Legend:
Assay type in all cases: cell-based, human
HepG2 cells = assay: apoptosis (Apoptotic evaluation 1) of siRNA-expressing HepG2 cells treated with 5-FU; conditions: for basal apoptosis: HepG2, 0 μmol/L 5-FU; for proportion of apoptosis in response to 5-FU: HepG2, 5-FU 10, 30 μmol/L, 60 hours, concentration-dependent
Experimental: Objective cells were treated with various anticancer agents, and then incubated with trypsin/EDTA to prepare cell suspensions. The cell suspensions were centrifuged and supernatants thereof were removed. Thereafter, the cell suspensions each were immobilized and stained with a solution of formaldehyde of 3.7%, Nonidet P40 of 0.5%, and 10 μg/mL of Hoechst33258 (Invitrogen) in PBS. […] The counting was performed with respect to at least 300 cells in one measurement.
Each type of the recombinant vectors was transfected into HepG2 cells for 18 hours in the same manner as in the above-described item (1). Each type of the transfection cells was treated with an anticancer agent “5-FU” having a predetermined concentration (0, 10, 30 μmol/L) for 60 hours. Then, the apoptosis (%) of the treated cells was examined according to “Apoptosis evaluation 1”. FIG. 1B is a graph showing apoptosis (%) in each type of the cells treated with 5-FU having a predetermined concentration (means±SD, n=3).

p53 [1] = assay: p53 mRNA (Northern) and p53 protein (Western) expression in siRNA-expressing HepG2 cells
Experimental: Western immunoblotting was performed according to Huez, I. et al. Mol. Endocrinol. 15 2197-2210 (2001) or Masuda, K., et al. PLoS Med. 5, e94 (2008). As a primary antibody, anti p53 antibody (“DO-1” or “FL-393”, Santa Cruz Biotechnology, Inc.), anti […] (“clone AC-15”, Sigma Chemical Co.), anti HA (“Y-11”, Santa Cruz Biotechnology Inc.), and anti L-VEGF (polyclonal anti L-VEGF antibody) mentioned in the Huez, I. et al. (2001) were used.
Total RNAs were extracted according to a guanidine thiocyanate method. Labeled cDNAs were produced using the following antisense primers, a klenow fragment (New England BioLabs, Inc., Inc.), and [α^−32P]dCTP, with the following cDNAs being templates. Thus obtained labeled cDNAs were used as probes for the Northern blotting.
Each type of the vectors was transfected into HepG2 cells for 18 hours in the same manner as in the above-described item (1). Then, the cells were treated in the presence of 5-FU (30 μmol/L) (+) or the absence of 5-FU (−). With respect to the cells treated for 8 hours, the expression level of p53 mRNA was analyzed by the Northern blotting. With respect to the cells treated for 12 hours, the expression level of p53 protein was analyzed by the Western immunoblotting. Analysis of protein also was performed with respect to β-actin protein that is an endogenous control (hereinafter, the same applies). […] In FIG. 1C, the first row from the top indicates expression of p53 mRNA, the second row indicates expression of gapdh mRNA, the third row indicates expression of p53 protein, and the fourth row indicates expression of 6-actin protein. Further, in FIG. 1C, “−” indicates the treatment in the absence of 5-FU and “+” indicates the treatment in the presence of 5-FU.

HCT116 cells = assay: apoptosis of siRNA-expressing HCT116 cells treated with low-concentration anticancer agents, with or without rVEGF; conditions: for enhancement of apoptosis when cells were treated with rVEGF protein: HCT116, 1 ng/ml rVEGF plus anticancer agents; for apoptosis by treatments with anticancer agents of low concentrations: HCT116, etoposide 20 μmol/L, doxorubicin 170 nmol/L, 5-FU 40 μmol/L, 60 hours, vs untreated
Experimental: The recombinant vectors that express vegf siRNA#1 and #2 and the vectors that express control siRNA were transfected into HCT116 cells (parent cells, wild-type p53). As a control cell, an HCT116 cell not transfected with a recombinant vector that expresses siRNA was used. These four types of cells were treated in the presence or absence of various anticancer agents having the final concentrations as described below for 60 hours. As the anticancer agent, etoposide (20 μmol/L), doxorubicin (170 nmol/L), and 5-FU (40 μmol/L) were used. With respect to the treated cells, apoptosis (%) was quantified in the same manner as in Example A1.
UTR RNA and function of VEGF protein. With the aim of clarifying an effect of blocking the function of vegf 5′ UTR RNA, recombinant VEGF protein (R&D systems, hereinafter referred to as “rVEGF”) was added to a culture supernatant of cells transfected with vegf siRNA in order to add VEGF protein that is decreased due to siRNA. […] Therefore, in Example A9, 1 ng/ml of rVEGF protein was added to the four types of cells. […] Then, these transfection cells were treated with anticancer agents in the same manner as described above.

parent cells HCT116 = assay: apoptosis (TUNEL) in parental HCT116 cells with vegf siRNA and 5-FU; conditions: parent cells HCT116, siRNA expressed and 80 mmol/L of 5-FU, 60 hours
Experimental: (§1) Apoptotic cells were evaluated by a TUNEL staining method using in situ Cell Death Detection kit (Roche Diagnostic). […] The counting was performed with respect to at least 300 cells in one measurement.
(§2) Various types of cells were treated with 5-FU, which is an anticancer agent inducing apoptosis in a p53-dependent manner, and the sensitivity to apoptosis was analyzed. The vegf siRNA#1 vectors expressing siRNA#1, the vegf siRNA #2 vectors expressing siRNA #2, and the control siRNA vectors described above respectively were transfected into HCT 116 (parent cells) and p53-deleted cells HCT116. Then, the cells after 18 hours from the transfection was treated for 60 hours in the presence of […] of 5-FU (+) or in the absence of 5-FU (−). The proportion (%) of apoptosis positive cells in the thus-treated cells was calculated based on “Apoptotic evaluation 2” above (means±SD, n=4).

p53-deleted cells HCT116 = assay: apoptosis (TUNEL) in p53-deleted HCT116 cells with vegf siRNA and 5-FU; conditions: p53-deleted cells HCT116, 5-FU treated, 60 hours
Experimental: as §1, §2

p53 [2] = assay: endogenous p53 mRNA (quantitative RT-PCR) and p53 protein (Western) in siRNA-transfected HCT116 cells
Experimental: From the results obtained in the above (1) and (2), it is interpreted that vegf IresRNA exerts an adverse influence in the p53 cancer suppression pathway. Thus, the expression level of endogenous p53 in cells transfected with vegf siRNA was examined. Specifically, the same transfected parent cells […] as in the above were treated for 8 hours in the presence of 80 lμmol/L of 5-FU (+) or in the absence of 5-FU (−), after which expression of p53 mRNA was analyzed by quantitative RT-PCR (means±SD, n=4). Also, the transfected cells were treated in the presence of 80 μmol/L of 5-FU (+) for a predetermined time (0, 8, 16, 24 hours), after which p53 protein was detected by the Western immunoblotting described above.

[3] = HepG2, absence of 5-FU, vs control cells
[4] = HepG2, presence of 5-FU (30 μmol/L), mRNA 8 hours, protein 12 hours
[5] = HCT116, absence of 5-FU, vs control
[6] = HCT116, further treated with 5-FU 80 μmol/L, 8 hours
[7] = HCT116, further treated with 5-FU 80 μmol/L, up to 24 hours

Substance | basal apoptosis (HepG2 cells) | proportion of apoptosis in response to 5-FU (HepG2 cells) | expression of p53 mRNA and p53 protein (p53 [1]; [3]) | expression of p53 mRNA and p53 protein (p53 [1]; [4]) | enhancement of apoptosis when cells were treated with rVEGF protein (HCT116 cells) | apoptosis by treatments with anticancer agents of low concentrations (HCT116 cells) | proportion of apoptosis (parent cells HCT116) | increase in proportion of apoptosis on siRNA expression (p53-deleted cells HCT116) | amount of the expressed p53 mRNA (p53 [2]; [5]) | amount of the expressed p53 mRNA (p53 [2]; [6]) | amount of the expressed p53 protein (p53 [2]; [7]) | amount of the expressed p53 protein (p53 [2]; HCT116, vs control)
siRNA #1: siRNA against vegf mRNA, SEQ ID NO 3/4, antisense complementary to bases 1062-1082 in SEQ ID NO. 1; expressed from pcDNA6.2-GW/EmGFP-miR vector (sense GCAUUGGACUUGCCUUGCUNN; antisense AGCAAGGCAAGGCUCCAAUGCNN) | not affected | increased markedly | increased | increased markedly | affected very little | enhanced markedly | increased markedly | little increase | increased | increased markedly | increased markedly | increased
siRNA #2: siRNA against vegf mRNA, SEQ ID NO 5/6, antisense complementary to bases 1067-1087 in SEQ ID NO. 1; vector-expressed (sense GGAGCCUUGUUGCUGCUCUNN; antisense AGAGCAGCAAGGCAAGGCUCCNN) | not affected | increased markedly | increased | increased markedly | affected very little | enhanced markedly | increased markedly | little increase | increased | increased markedly | increased markedly | increased

Source: patent US20100197765A1, “METHOD FOR PROMOTING THE EXPRESSION OF P53, AND P53 EXPRESSION PROMOTER FOR USE IN THE METHOD” (THE UNIVERSITY OF TOKUSHIMA, priority 2007, published 2010)
